Experimental data taken from ChEMBL document CHEMBL1152546, “N-[2-chloro-9H-purin-6-yl]-N-cyclopropylglycylamino acids and derivatives: synthesis, evaluation as a class of novel analgesics, and 3D QSAR analysis” (2009).

Key:
Mus musculus [1] = assay: Analgesic activity in ICR mouse assessed as pain threshold variation at 20 umol/kg, ip administered as single dose measured after 30 mins by tail flick test relative to control; assay type: functional
Mus musculus [2] = assay: Analgesic activity in ICR mouse assessed as pain threshold variation at 20 umol/kg, ip administered as single dose measured after 60 mins by tail flick test relative to control; assay type: functional
Mus musculus [3] = assay: Analgesic activity in ICR mouse assessed as pain threshold variation at 20 umol/kg, ip administered as single dose measured after 90 mins by tail flick test relative to control; assay type: functional
Mus musculus [4] = assay: Analgesic activity in ICR mouse assessed as pain threshold variation at 20 umol/kg, ip administered as single dose measured after 180 mins by tail flick test relative to control; assay type: functional
Mus musculus [5] = assay: Analgesic activity in ICR mouse assessed as pain threshold variation at 20 umol/kg, ip administered as single dose measured after 120 mins by tail flick test relative to control; assay type: functional
Mus musculus [6] = assay: Analgesic activity in ICR mouse assessed as pain threshold variation at 20 umol/kg, ip administered as single dose measured after 150 mins by tail flick test relative to control; assay type: functional
Mus musculus [7] = assay: Analgesic activity in ICR mouse assessed as pain threshold variation at 6.25 umol/kg, po administered as single dose measured after 90 mins by tail flick test relative to control; assay type: functional
Mus musculus [8] = assay: Analgesic activity in ICR mouse assessed as pain threshold variation at 12.5 umol/kg, po administered as single dose measured after 180 mins by tail flick test relative to control; assay type: functional
Mus musculus [9] = assay: Analgesic activity in ICR mouse assessed as pain threshold variation at 6.25 umol/kg, po administered as single dose measured after 120 mins by tail flick test relative to control; assay type: functional
Mus musculus [10] = assay: Analgesic activity in ICR mouse assessed as pain threshold variation at 25 umol/kg, po administered as single dose measured after 120 mins by tail flick test relative to control; assay type: functional
Mus musculus [11] = assay: Analgesic activity in ICR mouse assessed as pain threshold variation at 12.5 umol/kg, po administered as single dose measured after 90 mins by tail flick test relative to control; assay type: functional
Mus musculus [12] = assay: Analgesic activity in ICR mouse assessed as pain threshold variation at 6.25 umol/kg, po administered as single dose measured after 150 mins by tail flick test relative to control; assay type: functional
Mus musculus [13] = assay: Analgesic activity in ICR mouse assessed as pain threshold variation at 12.5 umol/kg, po administered as single dose measured after 60 mins by tail flick test relative to control; assay type: functional
Mus musculus [14] = assay: Analgesic activity in ICR mouse assessed as pain threshold variation at 6.25 umol/kg, po administered as single dose measured after 30 mins by tail flick test relative to control; assay type: functional
Mus musculus [15] = assay: Analgesic activity in ICR mouse assessed as pain threshold variation at 12.5 umol/kg, po administered as single dose measured after 30 mins by tail flick test relative to control; assay type: functional
Mus musculus [16] = assay: Analgesic activity in ICR mouse assessed as pain threshold variation at 25 umol/kg, po administered as single dose measured after 150 mins by tail flick test relative to control; assay type: functional
Mus musculus [17] = assay: Analgesic activity in ICR mouse assessed as pain threshold variation at 6.25 umol/kg, po administered as single dose measured after 180 mins by tail flick test relative to control; assay type: functional
Mus musculus [18] = assay: Analgesic activity in ICR mouse assessed as pain threshold variation at 12.5 umol/kg, po administered as single dose measured after 120 mins by tail flick test relative to control; assay type: functional
Mus musculus [19] = assay: Analgesic activity in ICR mouse assessed as pain threshold variation at 25 umol/kg, po administered as single dose measured after 180 mins by tail flick test relative to control; assay type: functional
Mus musculus [20] = assay: Analgesic activity in ICR mouse assessed as pain threshold variation at 12.5 umol/kg, po administered as single dose measured after 150 mins by tail flick test relative to control; assay type: functional
Mus musculus [21] = assay: Analgesic activity in ICR mouse assessed as pain threshold variation at 25 umol/kg, po administered as single dose measured after 60 mins by tail flick test relative to control; assay type: functional
Mus musculus [22] = assay: Analgesic activity in po dosed ICR mouse assessed as pain threshold variation administered as single dose measured after 30 to 180 mins by tail flick test; assay type: functional, organism-based
Mus musculus [23] = assay: Analgesic activity in ICR mouse assessed as pain threshold variation at 25 umol/kg, po administered as single dose measured after 30 mins by tail flick test relative to control; assay type: functional
Mus musculus [24] = assay: Analgesic activity in ICR mouse assessed as pain threshold variation at 25 umol/kg, po administered as single dose measured after 90 mins by tail flick test relative to control; assay type: functional
Mus musculus [25] = assay: Analgesic activity in ICR mouse assessed as pain threshold variation at 6.25 umol/kg, po administered as single dose measured after 60 mins by tail flick test relative to control; assay type: functional

CN1CC[C@]23c4c5ccc(O)c4O[C@H]2[C@@H](O)C=C[C@H]3[C@H]1C5 [MORPHINE]
Activity (Mus musculus [1]): 147% | Activity (Mus musculus [2]): 177.6% | Activity (Mus musculus [3]): 122.7% | Activity (Mus musculus [4]): 32.9% | Activity (Mus musculus [5]): 64.9% | Activity (Mus musculus [6]): 36.7%

CC(C)C[C@H](NC(=O)CN(c1nc(Cl)nc2[nH]cnc12)C1CC1)C(=O)O
Activity (Mus musculus [7]): 16.17% | Activity (Mus musculus [8]): 5.5% | Activity (Mus musculus [9]): 9.44% | Activity (Mus musculus [10]): 18.74% | Activity (Mus musculus [11]): 20.93% | Activity (Mus musculus [12]): 5.56% | Activity (Mus musculus [13]): 17.3% | Activity (Mus musculus [14]): 8.01% | Activity (Mus musculus [15]): 15.99% | Activity (Mus musculus [16]): 9.13% | Activity (Mus musculus [17]): 2.8% | Activity (Mus musculus [18]): 13.32% | Activity (Mus musculus [19]): 3.63% | Activity (Mus musculus [20]): 7.77% | Activity (Mus musculus [21]): 36.37% | Activity (Mus musculus [22]): Dose-dependent effect | Activity (Mus musculus [23]): 23.4% | Activity (Mus musculus [24]): 26.97% | Activity (Mus musculus [25]): 10.66%

N=C(N)NCCC[C@H](NC(=O)CN(c1nc(Cl)nc2[nH]cnc12)C1CC1)C(=O)O
Activity (Mus musculus [7]): 12.08% | Activity (Mus musculus [8]): 5.24% | Activity (Mus musculus [9]): 9.52% | Activity (Mus musculus [10]): 17.03% | Activity (Mus musculus [11]): 18.43% | Activity (Mus musculus [12]): 5.09% | Activity (Mus musculus [13]): 39.76% | Activity (Mus musculus [14]): 8.9% | Activity (Mus musculus [15]): 22.24% | Activity (Mus musculus [16]): 7.19% | Activity (Mus musculus [17]): 2.15% | Activity (Mus musculus [18]): 10.28% | Activity (Mus musculus [19]): 5.19% | Activity (Mus musculus [20]): 6.93% | Activity (Mus musculus [21]): 50.97% | Activity (Mus musculus [22]): Dose-dependent effect | Activity (Mus musculus [23]): 45.41% | Activity (Mus musculus [24]): 27.59% | Activity (Mus musculus [25]): 17.53%
